Results as given in PMC7235175, “Analysis of Pigment-Dispersing Factor Neuropeptides and Their Receptor in a Velvet Worm” (Frontiers in Endocrinology, 2020).
“Also recorded” adds a separate entry of the source.

Test system: PDF receptor Er-PDFR of E. rowelli
Assay: BRET assay: cAMP response (Epac-L sensor) of HEK293T cells transfected with Er-PDFR
Type: cell-based, Euperipatoides rowelli
Conditions: for activation of Er-PDFR (cAMP response) / potency of PDF-II relative to PDF-I as activating ligand: HEK293T, Epac-L BRET, n = 8; for activation of Er-PDFR (cAMP response): Rm-MIP7 as control (unrelated peptide); for potency of PDF-II relative to PDF-I as activating ligand: comparison of activation by the two peptides
Description: HEK293T cells were seeded on 96-well Nunc plates (Thermo Fisher Scientific, Waltham, MA, USA) at a density of 2 ×10^4 cells/well and cultured in DMEM high glucose (Sigma-Aldrich Chemie GmbH, Munich, Germany) supplemented with 10% fetal bovine serum and 5% CO2 at 37°C. After 24 h, cells were transfected using polyethyleneimine (25 kDa PEI, linear; Polysciences Europe GmbH, Hirschberg an der Bergstrasse, Germany) with GFP2-hEpac1E157-P881-Rluc8 [Epac-L; modified from ([83]–[85])] and pcDNA3.1-ErPDFR-3K10 in a 1:1 ratio (100 ng total DNA/well). Cells were washed with HBSS (Thermo Fisher Scientific) 2 days after transfection and stimulated with different concentrations of synthetic PDF peptides (10^−11 to 10^−5 M final concentration) together with the substrate coelenterazine 400A (“DeepBlueC”; BIOTREND Chemikalien GmbH, Cologne, Germany) at a final concentration of 5 μM in a total volume of 50 μL HBSS. Control experiments were conducted with cells expressing Epac-L alone, stimulation without PDF peptides, stimulation using an unrelated peptide (myoinhibitory peptide 7 from the cockroach Rhyparobia maderae), and stimulation with forskolin (50 μM final concentration; Sigma-Aldrich Chemie GmbH) + IBMX (100 μM final concentration; Sigma-Aldrich Chemie GmbH), respectively. The raw luminescence was measured immediately after stimulation at wavelengths of 410 ± 80 nm for the donor and 515 ± 30 nm for the acceptor in eight biological replicates for each tested PDF peptide concentration (n = 8) using a POLARstar Omega microplate reader (BMG Labtech, Cary, NC, USA). Their ratios [emission (410 nm)/emission (515 nm)] were box plotted as relative luminescence against the respective PDF concentration in dose response curves.

| Substance | activation threshold (minimum concentration required for PDFR stimulation) (HEK293T cells co-transfected with Epac-L and pcDNA3.1-ErPDFR-3K10 (1:1), peptide 10^−11 to 10^−5 M, coelenterazine 400A 5 μM in HBSS, emission 410/515 nm read immediately after stimulation, n = 8 biological replicates) | activation of Er-PDFR (cAMP response) (peptide 10^−11 to 10^−5 M) | potency of PDF-II relative to PDF-I as activating ligand | potency of PDF-II relative to PDF-I as activating ligand (listed as PDF-II) |
| --- | --- | --- | --- | --- |
| CNAELINSLLGLPKMMNDA-NH2 [Er-PDF-I, HPLC-purified synthetic pigment-dispersing factor peptide I of Euperipatoides rowelli] | 10^−6 M | activated by both PDF peptides of E. rowelli, Er-PDF-I and Er-PDF-II, in a dose-dependent manner; also recorded: activated by Er-PDF-I and Er-PDF-II in a distinct and dose-dependent manner |  |  |
| CNAELINSLLNLPQKLQEA-NH2 [Er-PDF-II, HPLC-purified synthetic pigment-dispersing factor peptide II of Euperipatoides rowelli] |  | activated by both PDF peptides of E. rowelli, Er-PDF-I and Er-PDF-II, in a dose-dependent manner; also recorded: activated by Er-PDF-I and Er-PDF-II in a distinct and dose-dependent manner | one order of magnitude more potent than Er-PDF-I | tenfold higher potency than PDF-I |
